In ChEMBL document CHEMBL4813984, “An original pronucleotide strategy for the simultaneous delivery of two bioactive drugs” (Eur J Med Chem, 2021) one finds selectivity ratio, CC50 and EC50 data, which are given here for three molecules.

Some results are limits rather than exact numbers.

The nature of data set [1]: Selectivity index, ratio of CC50 for human CEM-SS cells to EC50 for antiviral activity against HIV-1 infected in human CEM-SS cells. The format is toxicity, cell-based. The following applies: read-out: Ratio CC50/EC50.
Data set [2] is described as follows: Selectivity index, ratio of CC50 for human MT4 cells to EC50 for antiviral activity against HIV-1 infected in human MT4 cells. The format is toxicity, cell-based. Conditions: read-out: Ratio CC50/EC50.
A short description of data set [3]: Cytotoxicity against human MT4 cells assessed as reduction in cell viability incubated for 5 days by MTT assay. The format is cell-based. The following applies: time 5 day.
A short description of data set [4]: Cytotoxicity against human CEM-TK(-) cells assessed as reduction in cell viability incubated for 5 days by MTT assay. Conditions: time 5 day. The format is cell-based. (In general: Formazan colour is commonly taken as a measure of viable cells.)
Data set [5] has as its system Human immunodeficiency virus 1. The data set can be described thus: Antiviral activity against HIV-1 infected in human CEM-TK(-) cells assessed as reduction in viral multiplication by measuring decrease in reverse transcriptase activity incubated for 6 days. The format is functional, organism-based. The following applies: Human immunodeficiency virus 1, CEM-TK(-), 144 h.

Data set [6] can be described thus: Cytotoxicity against human CEM-SS cells assessed as reduction in cell viability incubated for 5 days by MTT assay. Type of data set: cell-based. The following applies: time 5 day.
For data set [7], the system named is Human immunodeficiency virus 1. The data set can be described thus: Antiviral activity against HIV-1 infected in human CEM-SS cells assessed as reduction in viral multiplication by measuring decrease in reverse transcriptase activity incubated for 5 days. The format is functional, organism-based. Conditions: Human immunodeficiency virus 1, CEM-SS, 120 h.
In data set [8] the test system is Human immunodeficiency virus 1. In words: Antiviral activity against HIV-1 infected in human CEM-SS cells assessed as reduction in viral multiplication by measuring decrease in reverse transcriptase activity incubated for 5 days in presence of AZT. Type of data set: functional, organism-based. Conditions: Human immunodeficiency virus 1, CEM-SS, 120 h.
A short description of data set [9]: Selectivity index, ratio of CC50 for human CEM-TK(-) cells to EC50 for antiviral activity against HIV-1 infected in human CEM-TK(-) cells in presence of AZT. The format is toxicity, cell-based. Conditions: read-out: Ratio CC50/EC50.
The subject of data set [10] is Human immunodeficiency virus 1. The data set can be described thus: Antiviral activity against HIV-1 infected in human CEM-TK(-) cells assessed as reduction in viral multiplication by measuring decrease in reverse transcriptase activity incubated for 6 days in presence of AZT. The format is functional, organism-based. Conditions: Human immunodeficiency virus 1, CEM-TK(-), 144 h.

Data set [11] can be described thus: Selectivity index, ratio of CC50 for human CEM-SS cells to EC50 for antiviral activity against HIV-1 infected in human CEM-SS cells in presence of AZT. Type of data set: toxicity, cell-based. Conditions: read-out: Ratio CC50/EC50.
Data set [12] is described as follows: Cytotoxicity against human CEM-SS cells assessed as reduction in cell viability incubated for 5 days in presence of AZT by MTT assay. The format is cell-based. The following applies: time 5 day.
A short description of data set [13]: Cytotoxicity against human CEM-TK(-) cells assessed as reduction in cell viability incubated for 5 days in presence of AZT by MTT assay. Conditions: time 5 day. The format is cell-based.
The nature of data set [14]: Cytotoxicity against human MT4 cells assessed as reduction in cell viability incubated for 5 days in presence of AZT by MTT assay. The format is cell-based. Conditions: time 5 day.
A short description of data set [15]: Selectivity index, ratio of CC50 for human CEM-TK(-) cells to EC50 for antiviral activity against HIV-1 infected in human CEM-TK(-) cells. Type of data set: toxicity, cell-based. Conditions: read-out: Ratio CC50/EC50.
Data set [16] in a line: Selectivity index, ratio of CC50 for human CEM-SS cells to EC50 for antiviral activity against HIV-1 infected in human CEM-SS cells in presence of ddA. Type of data set: toxicity, cell-based. The following applies: read-out: Ratio CC50/EC50.
Data set [17] deals with Human immunodeficiency virus 1. The data set can be described thus: Antiviral activity against HIV-1 infected in human MT4 cells assessed as reduction in virus-indued cytopathogenicity incubated for 5 days by MTT assay. The format is functional, organism-based. The following applies: Human immunodeficiency virus 1, MT4, 120 h. For orientation: Damage to the host cells serves as the signal in cytopathic effect assays.

Data set [18] can be described thus: Selectivity index, ratio of CC50 for human MT4 cells to EC50 for antiviral activity against HIV-1 infected in human MT4 cells in presence of AZT. Type of data set: toxicity, cell-based. The following applies: read-out: Ratio CC50/EC50.
The nature of data set [19]: Selectivity index, ratio of CC50 for human MT4 cells to EC50 for antiviral activity against HIV-1 infected in human MT4 cells in presence of ddA. Type of data set: toxicity, cell-based. Conditions: read-out: Ratio CC50/EC50.
Data set [20] can be described thus: Cytotoxicity against human MT4 cells assessed as reduction in cell viability incubated for 5 days in presence of ddA by MTT assay. Type of data set: cell-based. The following applies: time 5 day.
The subject of data set [21] is Human immunodeficiency virus 1. The data set can be described thus: Antiviral activity against HIV-1 infected in human MT4 cells assessed as reduction in virus-indued cytopathogenicity incubated for 5 days in presence of AZT by MTT assay. Type of data set: functional, organism-based. The following applies: Human immunodeficiency virus 1, MT4, 120 h.
For data set [22], the system named is Human immunodeficiency virus 1. The data set can be described thus: Antiviral activity against HIV-1 infected in human CEM-SS cells assessed as reduction in viral multiplication by measuring decrease in reverse transcriptase activity incubated for 5 days in presence of ddA. The format is functional, organism-based. The following applies: Human immunodeficiency virus 1, CEM-SS, 120 h.

Data set [23] concerns Human immunodeficiency virus 1. The data set can be described thus: Antiviral activity against HIV-1 infected in human MT4 cells assessed as reduction in virus-indued cytopathogenicity incubated for 5 days in presence of ddA by MTT assay. Type of data set: functional, organism-based. The following applies: Human immunodeficiency virus 1, MT4, 120 h.
A short description of data set [24]: Cytotoxicity against human CEM-SS cells assessed as reduction in cell viability incubated for 5 days in presence of ddA by MTT assay. The format is cell-based. The following applies: time 5 day.

The term CC50 denotes the concentration at which the toxic effect on the cells reaches its halfway point. Broadly, the EC50 is the concentration giving half of the maximal effect. `Cc1cn([C@H]2C[C@H](N=[N+]=[N-])[C@@H](CO)O2)c(=O)[nH]c1=O` [ZIDOVUDINE]: the selectivity ratio in data set [1] was more than 40000; in data set [2], 8240. For the same molecule, the CC50 at 120 h in data set [3] is 140 µM; in data set [4], more than 1000 µM; in data set [6], more than 1000 µM. Further, the EC50 was more than 100 µM in data set [5] and 0.024 µM in data set [7].
With `Nc1ccn([C@H]2CC[C@@H](CO)O2)c(=O)n1` [ZALCITABINE], the EC50 was found to be 0.016 µM in data set [8]; 0.009 µM in data set [10]; 2 µM in data set [17]; 0.083 µM in data set [21]; 0.015 µM in data set [5]; 0.01 µM in [22]. In addition, the EC50 in [7] stood at 0.067 µM; in [23], 1.2 µM. In addition, the selectivity ratio worked out at 922 in data set [9]; 2880 in data set [11]; 239 in [1]; 90 in data set [2]; 467 in data set [15]; 4600 in data set [16]. In addition, the selectivity ratio was 15700 in [18] and more than 83 in data set [19]. Moreover, the CC50 at 120 h is 46 µM in [12]; 180 µM in [3]; 8.3 µM in data set [13]; 130 µM in [14]; 7 µM in data set [4]; more than 100 µM in data set [20]. For the same molecule, the CC50 at 120 h was found to be 16 µM in [6] and 46 µM in data set [24].
For `Nc1ncnc2c1ncn2[C@H]1CC[C@@H](CO)O1`, the selectivity ratio was more than 55 in [1] and more than 12 in data set [2]. Besides, the CC50 at 120 h in [3] and in [6] was more than 110 µM each time. Further, the EC50 in [17] is 9 µM; in [7], 2 µM.
